Source: patent US11767320B2, “Bicyclic dione compounds as inhibitors of KRAS” (INCYTE CORPORATION, priority 2020, dated 2023)

Legend:
[1] = test system: MIA PaCa-2 (KRAS G12C) cells; experiment: Cellular pERK HTRF assay; type: cell-based; conditions: Homo sapiens; MIA PaCa-2 cells, 4 hours, phospho-ERK 1/2 HTRF; read-out: G12C_pERK (KRAS_G12C pERK assay IC50)
Procedure: MIA PaCa-2 (KRAS G12C; ATCC® CRL-1420), A427 (KRAS G12D; ATCC® HTB53), HPAF-II (KRAS G12D; ATCC® CRL-1997) and NCI-H838 (KRAS WT; ATCC® CRL-5844) cells are purchased from ATCC and maintained in RPMI 1640 media supplemented with 10% FBS (Gibco/Life Technologies). The cells are plated at 5000 cells per well (8 uL) into Greiner 384-well low volume, flat-bottom, tissue culture treated white plates and incubated overnight at 37° C. 5% CO2. The next morning, test compound stock solutions are diluted in media at 3× the final concentration, and 4 uL are added to the cells. The plate is mixed by gentle rotation for 30 seconds (250 rpm) at room temperature. The cells are incubated with the KRAS G12C and G12D compounds for 4 hours or 2 hours respectively at 37° C., 5% CO2.
4 uL of 4× lysis buffer with blocking reagent (1:25) (Cisbio) are added to each well and plates are rotated gently (300 rpm) for 30 minutes at room temperature. 4 uL per well of Cisbio anti Phospho-ERK 1/2 d2 is mixed with anti Phospho-ERK 1/2 Cryptate (1:1) are added to each well, mixed by rotation and incubated overnight in the dark at room temperature. Plates are read on the Pherastar plate reader at 665 nm and 620 nm wavelengths. IC50 determination is performed by fitting the curve of inhibitor percent inhibition versus the log of the inhibitor concentration using the GraphPad Prism 7 software.

[2] = molecular target: KRAS G12C (Homo sapiens, UniProt P01116, G12C); experiment: GDP-GTP exchange assay (fluorescence based guanine nucleotide exchange, bodipy-GDP for GppNHp, SOS1); type: biochemical; conditions: bodipy-loaded KRAS G12C, 2 hours pre-incubation with inhibitor, read-out: G12C_exchange (KRAS_G12C exchange assay IC50)
Procedure: The inhibitor potency of the exemplified compounds was determined in a fluorescence based guanine nucleotide exchange assay, which measures the exchange of bodipy-GDP (fluorescently labeled GDP) for GppNHp (Non-hydrolyzable GTP analog) to generate the active state of KRAS in the presence of SOS1 (guanine nucleotide exchange factor). Inhibitors were serially diluted in DMSO and a volume of 0.1 μL was transferred to the wells of a black low volume 384-well plate. 5 μL/well volume of bodipy-loaded KRAS G12C diluted to 5 nM in assay buffer (25 mM Hepes pH 7.5, 50 mM NaCl, 10 mM MgCl2 and 0.01% Brij-35) was added to the plate and pre-incubated with inhibitor for 2 hours at ambient temperature. Appropriate controls (enzyme with no inhibitor or with a G12C inhibitor (AMG-510)) were included on the plate. The exchange was initiated by the addition of a 5 μL/well volume containing 1 mM GppNHp and 300 nM SOS1 in assay buffer. The 10 μL/well reaction concentration of the bodipy-loaded KRAS G12C, GppNHp, and SOS1 were 5-25 nM, 500 uM, and 150 nM, respectively. The reaction plates were incubated at ambient temperature for 2 hours, a time estimated for complete GDP-GTP exchange in the absence of inhibitor. For the KRAS G12D and G12V mutants, similar guanine nucleotide exchange assays were used with 2.5 nM as final concentration for the bodipy loaded KRAS proteins and with 4 hours and 3 hours incubation after adding GppNHp-SOS1 mixture for G12D and G12V, respectively. A cyclic peptide described to selectively bind G12D mutant (Sakamoto et al., BBRC 484.3 (2017), 605-611) or internal compounds with confirmed binding were used as positive controls in the assay plates. Fluorescence intensities were measured on a PheraStar plate reader instrument (BMG Labtech) with excitation at 485 nm and emission at 520 nm.
Either GraphPad prism or XLfit was used to analyze the data. The IC50 values were derived by fitting the data to a four parameter logistic equation producing a sigmoidal dose-response curve with a variable Hill coefficient. Prism equation: Y=Bottom+(Top−Bottom)/(1+10^((Log IC50−X)*Hill slope)); XLfit equation: Y=(A+((B−A)/(1+((X/C)^D)))) where X is the logarithm of inhibitor concentration and Y is the response.

KRAS G12C, sequence (P01116 1-188 isoform P01116-2 G12C): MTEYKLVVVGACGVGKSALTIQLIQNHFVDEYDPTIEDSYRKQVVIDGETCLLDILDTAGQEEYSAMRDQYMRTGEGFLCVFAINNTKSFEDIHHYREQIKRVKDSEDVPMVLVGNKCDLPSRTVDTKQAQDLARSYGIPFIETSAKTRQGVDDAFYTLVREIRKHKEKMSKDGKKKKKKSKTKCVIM

| SMILES | IC50 [1] [nM] | IC50 [2] [nM] |
| --- | --- | --- |
| C=CC(=O)N1CC(Cn2c(=O)c(=O)n(-c3c(C(C)C)cccc3C(C)C)c3nc(-c4cccc(F)c4F)c(Cl)cc32)C1 [Example 5, 1-((1-acryloylazetidin-3-yl)methyl)-7-chloro-4-(2,6-diisopropylphenyl)-6-(2,3-difluorophenyl)-1,4-dihydropyrido[2,3-b]pyrazine-2,3-dione] | 100 to 1000 | ≤ 100 |
| C=CC(=O)N1CC(O)(Cn2c(=O)c(=O)n(-c3c(C(C)C)cccc3C(C)C)c3nc(-c4ccccc4F)c(Cl)cc32)C1 [Example 7, 1-((1-acryloyl-3-hydroxy-azetidin-3-yl)methyl)-7-chloro-4-(2,6-diisopropylphenyl)-6-(2-fluorophenyl)-1,4-dihydropyrido[2,3-b]pyrazine-2,3-dione] | 100 to 1000 | ≤ 100 |
| C=CC(=O)N1CC(Cn2c(=O)c(=O)n(-c3c(C(C)C)cccc3C(C)C)c3nc(-c4ccccc4F)c(Cl)cc32)(OC)C1 [Example 8, 1-((1-acryloyl-3-methoxy-azetidin-3-yl)methyl)-7-chloro-4-(2,6-diisopropylphenyl)-6-(2-fluorophenyl)-1,4-dihydropyrido[2,3-b]pyrazine-2,3-dione] | 100 to 1000 | 100 to 1000 |
| C=CC(=O)N1CC(Cn2c(=O)c(=O)n(-c3c(C(C)C)cccc3C(C)C)c3nc(-c4cccc(F)c4F)c(Cl)cc32)(OC)C1 [Example 9, 1-((1-acryloyl-3-methoxy-azetidin-3-yl)methyl)-7-chloro-4-(2,6-diisopropylphenyl)-6-(2,3-difluorophenyl)-1,4-dihydropyrido[2,3-b]pyrazine-2,3-dione] | 100 to 1000 | 100 to 1000 |
| C=CC(=O)N1CC(F)(Cn2c(=O)c(=O)n(-c3c(C(C)C)cccc3C(C)C)c3nc(-c4ccccc4F)c(Cl)cc32)C1 [Example 10, 1-((1-acryloyl-3-fluoro-azetidin-3-yl)methyl)-7-chloro-4-(2,6-diisopropylphenyl)-6-(2-fluorophenyl)-1,4-dihydropyrido[2,3-b]pyrazine-2,3-dione] | 100 to 1000 | ≤ 100 |
| C=CC(=O)N1CC(F)(Cn2c(=O)c(=O)n(-c3c(C(C)C)cccc3C(C)C)c3nc(-c4cccc5ccccc45)c(Cl)cc32)C1 [Example 11, 1-((1-acryloyl-3-fluoroazetidin-3-yl)methyl)-7-chloro-6-(1-naphthyl)-4-(2,6-diisopropylphenyl)-1,4-dihydropyrido[2,3-b]pyrazine-2,3-dione] | 100 to 1000 | ≤ 100 |
| C=CC(=O)N1CC(F)(Cn2c(=O)c(=O)n(-c3c(C(C)C)cccc3C(C)C)c3nc(-c4c(O)cccc4F)c(Cl)cc32)C1 [Example 12, 1-((1-acryloyl-3-fluoroazetidin-3-yl)methyl)-7-chloro-4-(2,6-diisopropylphenyl)-6-(2-fluoro-6-hydroxyphenyl)-1,4-dihydropyrido[2,3-b]pyrazine-2,3-dione] | ≤ 100 | ≤ 100 |
| C=C(F)C(=O)N1CC(F)(Cn2c(=O)c(=O)n(-c3c(C(C)C)cccc3C(C)C)c3nc(-c4c(O)cccc4F)c(Cl)cc32)C1 [Example 13, 7-chloro-4-(2,6-diisopropylphenyl)-1-((3-fluoro-1-(2-fluoroacryloyl)azetidin-3-yl)methyl)-6-(2-fluoro-6-hydroxyphenyl)-1,4-dihydropyrido[2,3-b]pyrazine-2,3-dione] | ≤ 100 | ≤ 100 |
| C=CC(=O)N1CC(F)(Cn2c(=O)c(=O)n(-c3c(C(C)C)cccc3C(C)C)c3nc(-c4cc(O)cc5ccccc45)c(Cl)cc32)C1 [Example 14, 1-((1-acryloyl-3-fluoroazetidin-3-yl)methyl)-7-chloro-4-(2,6-diisopropylphenyl)-6-(3-hydroxynaphthalen-1-yl)-1,4-dihydropyrido[2,3-b]pyrazine-2,3-dione] | ≤ 100 | ≤ 100 |
| C=CC(=O)N1CC(F)(Cn2c(=O)c(=O)n(-c3c(C(C)C)cccc3C(C)C)c3nc(-c4c(N)cccc4F)c(Cl)cc32)C1 [Example 15, 1-((1-acryloyl-3-fluoroazetidin-3-yl)methyl)-6-(2-amino-6-fluorophenyl)-7-chloro-4-(2,6-diisopropylphenyl)-1,4-dihydropyrido[2,3-b]pyrazine-2,3-dione] | ≤ 100 | ≤ 100 |
| C=CC(=O)N1CC(F)(Cn2c(=O)c(=O)n(-c3c(C(C)C)cccc3C(C)C)c3nc(-c4c(O)ccc(F)c4F)c(Cl)cc32)C1 [Example 16, 1-((1-acryloyl-3-fluoroazetidin-3-yl)methyl)-7-chloro-6-(2,3-difluoro-6-hydroxyphenyl)-4-(2,6-diisopropylphenyl)-1,4-dihydropyrido[2,3-b]pyrazine-2,3-dione] | ≤ 100 | ≤ 100 |
| C=CC(=O)N1CC(F)(Cn2c(=O)c(=O)n(-c3c(C)ccnc3C(C)C)c3nc(-c4c(O)cccc4F)c(Cl)cc32)C1 [Example 17, 1-((1-acryloyl-3-fluoroazetidin-3-yl)methyl)-7-chloro-6-(2-fluoro-6-hydroxyphenyl)-4-(2-isopropyl-4-methylpyridin-3-yl)-1,4-dihydropyrido[2,3-b]pyrazine-2,3-dione] | ≤ 100 | ≤ 100 |
| C=CC(=O)N1CC(F)(Cn2c(=O)c(=O)n(-c3c(C)ccnc3C(C)C)c3nc(-c4ccccc4F)c(Cl)cc32)C1 [Example 18, 1-((1-acryloyl-3-fluoroazetidin-3-yl)methyl)-7-chloro-6-(2-fluorophenyl)-4-(2-isopropyl-4-methylpyridin-3-yl)-1,4-dihydropyrido[2,3-b]pyrazine-2,3-dione] | ≤ 100 | ≤ 100 |
| C=CC(=O)N1CC(F)(Cn2c(=O)c(=O)n(-c3c(C)ccnc3C(C)C)c3nc(-c4c(N)cccc4F)c(Cl)cc32)C1 [Example 19, 1-((1-acryloyl-3-fluoroazetidin-3-yl)methyl)-6-(2-amino-6-fluorophenyl)-7-chloro-4-(2-isopropyl-4-methylpyridin-3-yl)-1,4-dihydropyrido[2,3-b]pyrazine-2,3-dione] | ≤ 100 | ≤ 100 |
| C=CC(=O)N1CC(F)(Cn2c(=O)c(=O)n(-c3c(C)ccnc3C(C)C)c3nc(-c4c(O)cc(C)cc4F)c(Cl)cc32)C1 [Example 20, 1-((1-acryloyl-3-fluoroazetidin-3-yl)methyl)-7-chloro-6-(2-fluoro-6-hydroxy-4-methylphenyl)-4-(2-isopropyl-4-methylpyridin-3-yl)-1,4-dihydropyrido[2,3-b]pyrazine-2,3-dione] | ≤ 100 | ≤ 100 |
| C=CC(=O)N1CC(F)(Cn2c(=O)c(=O)n(-c3c(C)ccnc3C(C)C)c3nc(-c4c(F)ccc(C)c4O)c(Cl)cc32)C1 [Example 21, 1-((1-acryloyl-3-fluoroazetidin-3-yl)methyl)-7-chloro-6-(6-fluoro-2-hydroxy-3-methylphenyl)-4-(2-isopropyl-4-methylpyridin-3-yl)-1,4-dihydropyrido[2,3-b]pyrazine-2,3-dione] | ≤ 100 | ≤ 100 |
| C=CC(=O)N1CC(F)(Cn2c(=O)c(=O)n(-c3c(C)ccnc3C(C)C)c3nc(-c4c(F)ccc(F)c4O)c(Cl)cc32)C1 [Example 22, 1-((1-acryloyl-3-fluoroazetidin-3-yl)methyl)-7-chloro-6-(3,6-difluoro-2-hydroxyphenyl)-4-(2-isopropyl-4-methylpyridin-3-yl)-1,4-dihydropyrido[2,3-b]pyrazine-2,3-dione] | ≤ 100 | ≤ 100 |
